From patent EP4667468A1, “COMPOUND FOR INHIBITING NLRP3, PREPARATION METHOD, AND USE” (Shenzhen Zhongge Biological Technology Co., Ltd., priority 2023, dated 2024)

Biological target: IL-1β secretion of THP-1 cells (Homo sapiens, UniProt Q96P20)
Test: Effect of NLRP3 inhibitor on IL-1β secretion of THP-1 cells (AlphaLISA)
Type: cell-based
Conditions: PMA 50nM, LPS 100ng/ml, Nigericin 10µM, IL-1β in supernatant
Method: This experiment used the PerkinElmer AlphaLISA_human_IL1β kit (AL220 C/F). The detection buffer was RPMI-1640+10FBS. AlphaLISA Immunoassay Buffer, AlphaLISA Anti-IL1β Acceptor beads, Streptavidin (SA)-coated Donor beads, and Biotinylated Antibody Anti-IL1β were all included in the kit.
The density of THP1 cells was adjusted to 4×10^5 cells/mL, PMA (final concentration 50nM) was added, inoculated into 96-well flat-bottom plates at 200µL/well, and stimulated overnight at 37°C, 5% CO2 (try to <16h). The next day, the supernatant was discarded, and the flat washed twice with DPBS (200µL/time). Then LPS solution (final concentration of 100ng/ml) was added at 198µL/well , incubated at 37°C, 5% CO2 for 3h. 1µL of the corresponding concentration of compounds was added to each well according to the experimental MAP, incubated at 37°C, 5% CO2 for 1h. 1µL Nigericin (final concentration of 10µM) was added to each well, incubated overnight at 5% CO2 (>18h). On the third day, 5µL of supernatant was taken, diluted 20 times, and the content of IL-Iβ in the supernatant was detected by Human Interleukin 1 beta (IL1β) Kit. Envision was used to read the AlphaLISA test value of Ex = 680/ Em = […]. GraphPad Prism 9.5.0 was used to analyze the data, and the IC50 value of the compound for IL-Iβ antagonism was fitted by four-parameter Logistic. […] Table 2: Results of IC50 experiments using THP-1 cells to detect NLRP3 inhibitors

Sequence of IL-1β secretion of THP-1 cells (Q96P20 whole entry): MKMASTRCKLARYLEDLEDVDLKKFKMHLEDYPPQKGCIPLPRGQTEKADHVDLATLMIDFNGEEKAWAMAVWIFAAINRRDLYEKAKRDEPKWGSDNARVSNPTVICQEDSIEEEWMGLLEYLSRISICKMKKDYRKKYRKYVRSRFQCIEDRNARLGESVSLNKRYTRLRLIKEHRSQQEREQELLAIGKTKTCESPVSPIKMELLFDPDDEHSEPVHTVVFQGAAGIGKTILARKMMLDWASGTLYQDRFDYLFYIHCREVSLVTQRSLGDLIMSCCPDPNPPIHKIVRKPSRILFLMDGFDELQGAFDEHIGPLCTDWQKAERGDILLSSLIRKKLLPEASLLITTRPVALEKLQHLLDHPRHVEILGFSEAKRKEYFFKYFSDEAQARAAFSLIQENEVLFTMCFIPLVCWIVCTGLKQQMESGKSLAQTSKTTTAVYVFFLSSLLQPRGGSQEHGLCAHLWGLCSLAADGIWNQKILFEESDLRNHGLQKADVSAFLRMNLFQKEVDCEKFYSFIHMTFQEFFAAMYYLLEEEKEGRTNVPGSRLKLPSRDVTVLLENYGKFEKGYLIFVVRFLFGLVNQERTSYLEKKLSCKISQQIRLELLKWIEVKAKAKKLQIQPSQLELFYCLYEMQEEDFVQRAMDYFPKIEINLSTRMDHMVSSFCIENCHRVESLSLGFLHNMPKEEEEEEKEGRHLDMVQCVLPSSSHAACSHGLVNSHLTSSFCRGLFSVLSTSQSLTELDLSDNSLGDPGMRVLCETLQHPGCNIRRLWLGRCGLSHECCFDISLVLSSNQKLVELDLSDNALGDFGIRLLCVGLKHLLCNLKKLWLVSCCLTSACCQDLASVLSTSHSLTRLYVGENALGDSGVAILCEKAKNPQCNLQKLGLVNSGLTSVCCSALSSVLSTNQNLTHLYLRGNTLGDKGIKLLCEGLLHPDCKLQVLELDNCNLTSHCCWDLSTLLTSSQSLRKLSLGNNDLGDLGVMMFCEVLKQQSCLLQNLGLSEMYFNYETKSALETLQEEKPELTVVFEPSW

Compound	IC50
CCN1CCC[C@@H](n2ccc3cc(-c4c(C)cc(C(F)(F)F)cc4O)nnc32)C1 [11-a]	< 50 nM
CCN1CCC[C@@H](N2CC(=O)Nc3cc(-c4c(C)cc(C(F)(F)F)cc4O)nnc32)C1 [12-a]	< 50 nM
Cc1cc(C(F)(F)F)cc(O)c1-c1ccc2[nH]c(NCC(C)(C)O)nc2n1 [Compound 6]	100 to 500 nM
Cc1cc(C(F)(F)F)cc(O)c1-c1ccc2oc(N3CCOC[C@H]3C)nc2n1 [compound 371]	50 to 100 nM
Oc1cc(Cl)cc(O)c1-c1ccc2oc(N3CCOCC3)nc2n1 [compound 376]	< 50 nM
Cc1cc(C(F)(F)F)cc(O)c1-c1ccc2oc(N3CC4CCC(C3)O4)nc2n1 [compound 381]	100 to 500 nM
Cc1cc(C(F)(F)F)cc(O)c1-c1ccc2oc(N3CCS(=O)(=O)CC3)nc2n1 [compound 384]	< 50 nM
Cc1cc(Cl)cc(O)c1-c1ccc2oc(N3CCS(=O)(=O)CC3)nc2n1 [compound 387]	50 to 100 nM
CCS(=O)(=O)N1CCN(c2nc3nc(-c4c(C)cc(C(F)(F)F)cc4O)ccc3o2)CC1 [compound 388]	50 to 100 nM
Cc1cc(C(F)(F)F)cc(O)c1-c1ccc2oc(N3CCN(S(C)(=O)=O)CC3)nc2n1 [compound 390]	< 50 nM
Cc1cc(C(F)(F)F)cc(O)c1-c1ccc2oc(N3CCN(S(=O)(=O)C4CC4)CC3)nc2n1 [compound 392]	< 50 nM
CCS(=O)(=O)N1CCN(c2nc3nc(-c4c(C)cc(C(F)(F)F)cc4O)ccc3o2)C[C@@H]1C [compound 394]	50 to 100 nM
CCN1C[C@H](F)C[C@@H](Nc2nc3nc(-c4c(C)cc(C(F)(F)F)cc4O)ccc3o2)C1 [compound 397]	100 to 500 nM
Cc1cc(C(F)(F)F)cc(O)c1-c1ccc2oc(N[C@@H]3CCCN(C4CC4)C3)nc2n1 [compound 399]	< 50 nM
Cc1cc(C(F)(F)F)cc(O)c1-c1ccc2oc(N[C@@H]3CCCN(C(C)C)C3)nc2n1 [compound 400]	< 50 nM
Cc1cc(C(F)(F)F)cc(O)c1-c1ccc2oc(N[C@@H]3CCCN(CCO)C3)nc2n1 [compound 404]	< 50 nM
Cc1cc(C(F)(F)F)cc(O)c1-c1ccc2oc(NC[C@@H](C)O)nc2n1 [compound 413]	50 to 100 nM

Compound	IC50
Cc1cc(C(F)(F)F)cc(O)c1-c1ccc2nc(N3CCS(=O)(=O)CC3)nn2n1 [compound 422]	100 to 500 nM
Cc1cc(C(F)(F)F)cc(O)c1-c1ccc2nc(N3CCOCC3)nn2n1 [compound 423]	100 to 500 nM
Cc1cc(C(F)(F)F)cc(O)c1-c1cc(C)c2nc(N3CCOCC3)nn2n1 [compound 424]	< 50 nM
Cc1cc(C(F)(F)F)cc(O)c1-c1ccn2nc(N3CCOCC3)nc2n1 [compound 426]	< 50 nM
CCN1CCC[C@@H](Nc2nc3ccc(-c4c(C)cc(C(F)(F)F)cc4O)nn3n2)C1 [compound 439]	< 50 nM
Cc1cc(C(F)(F)F)cc(O)c1-c1cc(C)n2nc(N3CCOCC3)nc2n1 [compound 440]	50 to 100 nM
CC(=O)NC[C@@H]1COCCN1c1nc2nc(-c3c(C)cc(C(F)(F)F)cc3O)cc(C)n2n1 [compound 441]	< 50 nM
CC(=O)NC[C@@H]1COCCN1c1nc2c(C)cc(-c3c(C)cc(C(F)(F)F)cc3O)nn2n1 [compound 442]	< 50 nM
Cc1cc(C(F)(F)F)cc(O)c1-c1cc(C)n2nc(N[C@@H]3CCCN(C)C3)nc2n1 [compound 443]	< 50 nM
Cc1cc(C(F)(F)F)cc(O)c1-c1ccn2nc(N[C@@H]3CCCN(C)C3)nc2n1 [compound 444]	< 50 nM
Cc1cc(C(F)(F)F)cc(O)c1-c1ccc2nc(N[C@@H]3CCCN(C)C3)nn2n1 [compound 445]	< 50 nM
Cc1cc(C(F)(F)F)cc(O)c1-c1cc(C)c2nc(N[C@@H]3CCCN(C)C3)nn2n1 [compound 446]	< 50 nM
CCN1CCC[C@@H](Nc2nc3c(C)cc(-c4c(C)cc(C(F)(F)F)cc4O)nn3n2)C1 [compound 447]	< 50 nM
CCN1CCC[C@@H](Nc2nc3nc(-c4c(C)cc(C(F)(F)F)cc4O)ccn3n2)C1 [compound 448]	< 50 nM
Cc1cc(C(F)(F)F)cc(O)c1-c1cc(C)n2nc(N[C@H]3CCCN(CCO)C3)nc2n1 [compound 460]	< 50 nM
CCN1CCC[C@H](Nc2nc3nc(-c4c(C)cc(C(F)(F)F)cc4O)cc(C)n3n2)C1 [compound 462]	< 50 nM

Test system: not listed separately
Test: Liver microsome metabolic stability, human
Type: in vitro ADME, humans
Conditions: human (h) liver microsomes 0.5 mg/ml, 45 min; read-out: LMS (h,r,m) (% rem, 45 min)
Method: (§1) Purpose: This experiment investigates the metabolic stability of the compound in liver microsomes of different species such as humans, mice and rats, and the residual content of the test compound after incubation with liver microsomes of different species such as humans, mice and rats.
(§2) Preparation of 500 µM solution of target compound and positive control: 5 µL of each 10 mM stock solution was taken, added to 95 µL acetonitrile, and mixed for 30 s;
(§3) Preparation of 6 mM NADPH solution: 100 mM Stock aliquot liquid was diluted with Mg-Mg-K-Buffer.
(§4) • 2.1.1 Liver microsome solution: 18.75 µL of 20 mg/mL HLM, RLM, MLM, DLM, MOLM (final concentration: 0.5 mg/ml) were taken and placed them in each well of a 96-well plate; • 2.1.2 1.5 µL of 500 µM solution of each compound was added respectively; • 2.1.3 479.8 µL of phosphate buffer was taken, then added to each compound well, and mixed at 1000 rpm in an oscillating mixer for 10 s.
(§5) 30 µL of the above samples were taken and aliquoted to a new 96-well plates respectively (including NADPH group, n=2, and no NADPH group at 0 and 45 min, n=1), marked as 0, 5, 15, 30 and 45 min; […]
(§6) The slope was calculated based on the LN value of the compound concentration percentage and time as the coordinate axis, and the residual content of the compound after incubation with liver microsomes was calculated based on the slope and formula. […]

Compound	remaining at 0.75 h, 1 µM
CC(=O)N1CCOC[C@H]1CNc1nc2nc(-c3c(C)cc(C(F)(F)F)cc3O)ccc2o1 [Compound 111]	93.2%

Test system: not listed separately
Test: Liver microsome metabolic stability, rat
Type: in vitro ADME, rats
Conditions: rat (r) liver microsomes 0.5 mg/ml, 45 min; read-out: LMS (h,r,m) (% rem, 45 min)
Method: as §1, §2, §3, §4, §5, §6

Compound	remaining at 0.75 h, 1 µM
CC(=O)N1CCOC[C@H]1CNc1nc2nc(-c3c(C)cc(C(F)(F)F)cc3O)ccc2o1 [Compound 111]	82.5%

Test system: not listed separately
Test: Liver microsome metabolic stability, mouse
Type: in vitro ADME, mice
Conditions: mouse (m) liver microsomes 0.5 mg/ml, 45 min; read-out: LMS (h,r,m) (% rem, 45 min)
Method: as §1, §2, §3, §4, §5, §6

Compound	remaining at 0.75 h, 1 µM
CC(=O)N1CCOC[C@H]1CNc1nc2nc(-c3c(C)cc(C(F)(F)F)cc3O)ccc2o1 [Compound 111]	91.3%

Test system: iodoacetic acid (MIA)-induced SD rat knee osteoarthritis model
Test: Efficacy on iodoacetic acid-induced SD rat knee osteoarthritis model
Type: in vivo, SD rats
Conditions: 30mg/kg orally once a day from Day 7 to Day 42
Method: Purpose: Evaluate the efficacy of MCC950 (Positive reference compound) and compound 111 of the present invention on iodoacetic acid (MIA)-induced SD rat knee osteoarthritis model. Experimental materials: Experimental male SD rats, 4 weeks old. Model induction began after the experimental animals were adapted to the animal environment for 7 days. Day 0, the rats were anesthetized, the hair around the left knee joint was removed, and the skin was disinfected. The left leg was flexed 90° to expose the patellar platform. The depression in the middle of the platform was touched by hand to find the femoral condyle, patella and ligament. The syringe needle was inserted from the bottom of the patella on both sides of the patellar ligament to the direction of the femoral condyle. When a clear sense of empty space was felt, 50µL of iodoacetic acid solution was injected. Day 7 Grouping was performed according to the width of the knee joint on the induced side. The groups were: normal control group (healthy control without modeling, 5% DMSO+10% Solutol+85% Saline), model blank control group (5% DMSO+10% Solutol+85% Saline), MCC950 30mg/kg, and compound 111 of the present invention 30mg/kg. Starting from Day 7, the normal control group and the model blank control group were given the solvent (5% DMSO+10% Solutol+85% Saline) orally once a day, and the other groups were given the corresponding compounds orally once a day until the end of the administration on Day 42. The knee joint width and body weight of the rats were measured once on Day 7, 14, 21, 28, 35, and 42. This experiment tested the efficacy of MCC950 (Positive compound) and compound 111 of the present invention on the SD rat knee osteoarthritis model induced by iodoacetic acid (MIA), see Figures 1 and 2.

Compound	body weight of the rats
CC(=O)N1CCOC[C@H]1CNc1nc2nc(-c3c(C)cc(C(F)(F)F)cc3O)ccc2o1 [Compound 111]	without affecting the body weight of the rats

Same assay, conditions: 30mg/kg orally once a day from Day 7 to Day 42; compared with the model blank control group, 21 days to 42 days after modeling

Compound	widening of the knee joints
CC(=O)N1CCOC[C@H]1CNc1nc2nc(-c3c(C)cc(C(F)(F)F)cc3O)ccc2o1 [Compound 111]	significantly inhibit the widening of the knee joints
CC(C)(O)c1coc(S(=O)(=O)NC(=O)Nc2c3c(cc4c2CCC4)CCC3)c1 [MCC950, reference compound]	significantly inhibit the widening of the knee joints
